Read-outs that look alike come from different tables or passages of the source. One block for each molecule: values may come before it.
Key:
[1] = Procedure: (§1) Plasma from 9 individual male fish (500 µL/individual) was pooled to yield 3 samples for PPCP analysis. […] Plasma from 6 individual carp (2.3–3.5 g) from each location was selected for PPCP analysis. […] Plasma samples were frozen (−80 °C) until analysis.
(§2) A total of 20 fish plasma samples from the pooled caged fish (7) and the wild fish (13) along with 12 water samples were selected for analysis. […] A full list of analytes is provided in Supplementary Information. Mass labelled^13C-, or deuterated surrogate internal standards were used for quantification of all analytes via the isotope dilution/surrogate standard quantitation method. Prior to extraction and/or clean-up procedures, aqueous samples were adjusted to pH 2.0, spiked with extraction surrogate standards, then adjusted to pH 4 using tetrasodium ethylenediamine-tetraacetate dihydrate. Plasma samples (2.3–2.5 g) were spiked with extraction surrogate standards, sonicated with 20 mL acetonitrile, then diluted with ultra-pure water to 200 mL. The extracts were cleaned up by solid phase extraction using Oasis HLB cartridges (Waters Ltd. Mississauga ON), filtered, and analyzed by liquid chromatography-electrospray ionization-tandem mass spectrometry (LC/ESI-MS/MS) in positive or negative ionization mode. The analysis of the complete list of analytes (SI Table S1) required a total of five instrumental runs.
(§3) Quality assurance steps included analysis of lab blanks for water and plasma along with matrix recovery spikes. […] Detection limits (DLs) were defined as lowest calibration level adjusted to the maximal sample size or 3 times the signal of the noise in the target channel converted to an equivalent sample, whichever was greater. […] Where analytes were detected in two or more samples of the same species or series of water samples, non-detect values were converted to ½ the DL value for reporting purposes.

[2] = remark: listed apart in the source
Procedure: as §1, §2

[3] = Table S7; ref Meador et al. (2016); cited from earlier work
in vivo = conditions: goldfish (Carassius auratus), in vivo
Description: Cages were visited weekly, and fish (13/cage) were fed during the visits (20 g/cage). All animal experiments were in accordance with CCAC guidance and approved by the GLLFAS-WSTD Animal Care Committee (Government of Canada). Further details on the caging and preparation of the fish and animal care protocols are provided in Simmons et al.[32]. […] A fourth site, Jordan Harbour (JH), a widening of 20 Mile Creek adjacent to Lake Ontario near Jordan ON, served as a reference site. Mass and fork length were measured and recorded. Plasma collection and storage is described in the SI. Plasma of caged goldfish was divided for proteome, metabolome and PPCP analysis. Due to limited volumes, pooled samples of plasma from 25 individual fish (50 µL/individual) was pooled to yield one sample from at each location for PPCP analysis.
as §2, §3

[4] = Table S7; ref Meador et al. (2016); cited from earlier work; remark: listed apart in the source
[5] = Plasma bioaccumulation factor (BAFP), goldfish; assay type: in vivo, goldfish (Carassius auratus); conditions: CPM2; water sample of August 2012
Procedure: Bioaccumulation factor (BAFP) was calculated as concentration in fish plasma (ng/g × 1000) divided by concentration in water (ng/L). Two widely used modeling approaches for predicting organic contaminant bioaccumulation were assessed: the BCF-BAF model for whole body BAFs[53] and the fish-plasma concentration calculation of Huggett et al.[35] modified by Berninger et al.[54]. The latter involves estimating an octanol-water partition coefficient (Kow) adjusted for fraction ionized (log D), using the pKa value to adjust log Kow[54] taking into account the pH of CPM waters. Further information on the calculation of log D, blood-water partitioning (PBW), and plasma concentrations (FPC) is given in the SI.

[6] = Jordan Harbour carp 54, Nov 7, 2011, male, wet weight
[7] = Jordan Harbour carp 73, Nov 7, 2011, female, wet weight
[8] = Jordan Harbour carp 74, Nov 7, 2011, male, wet weight
[9] = Jordan Harbour carp 75, Nov 7, 2011, female, wet weight
[10] = Jordan Harbour carp 78, Nov 7, 2011, male, wet weight
[11] = Jordan Harbour carp 82, Nov 7, 2011, female, wet weight
[12] = Jordan Harbour brown bullhead, wet weight
[13] = carp (Cyprinus carpio), in vivo
[14] = female, carp (Cyprinus carpio), in vivo
[15] = male, carp (Cyprinus carpio), in vivo
[16] = male, goldfish (Carassius auratus), in vivo

Structure (SMILES): CC(C(=O)O)c1ccc(CC(C)(C)O)cc1 (stereo not drawn) [2-Hydroxy-ibuprofen]
plasma concentration, CPM-C 01 ([1]; Cootes carp 01, 2011, male, wet weight): < 16.9 ng/g
plasma concentration, CPM-C 2 ([1]; Cootes carp 2, Sep 27, 2011, male, wet weight): < 23 ng/g
plasma concentration, CPM-C 10 ([1]; Cootes carp 10, Sep 28, 2011, female, wet weight): < 24.2 ng/g
plasma concentration, CPM-C 13 ([1]; Cootes carp 13, Sep 28, 2011, female, wet weight): < 24.9 ng/g
plasma concentration, CPM-C 20 ([1]; Cootes carp 20, 2011, male, wet weight): < 17.2 ng/g
plasma concentration, CPM-C 36 ([1]; Cootes carp 36, Oct 3, 2011, female, wet weight): < 22.9 ng/g
plasma concentration, JH-C 54 [1, 6]: < 16.9 ng/g
plasma concentration, JH-C 73 [1, 7]: < 16.5 ng/g
plasma concentration, JH-C 74 [1, 8]: < 17 ng/g
plasma concentration, JH-C 75 [1, 9]: < 24.1 ng/g
plasma concentration, JH-C 78 [1, 10]: < 38.5 ng/g
plasma concentration, JH-C 82 [1, 11]: 17 ng/g
plasma concentration, JH-BB [2, 12]: < 30.4 ng/g

Structure (SMILES): Cn1c(=O)c2c(ncn2C)n(C)c1=O [Caffeine]
plasma concentration, JH-C 54 [1, 6]: < 3.18 ng/g
plasma concentration, JH-C 73 [1, 7]: < 3.09 ng/g
plasma concentration, JH-C 74 [1, 8]: < 3.19 ng/g
plasma concentration, JH-C 75 [1, 9]: < 4.52 ng/g
plasma concentration, JH-C 78 [1, 10]: < 3.13 ng/g
plasma concentration, JH-C 82 [1, 11]: < 3.01 ng/g
plasma concentration, CPM wild-02 ([1]; wild goldfish sample 02, 2012, wet weight): 1.525 ng/g
plasma concentration, CPM wild-03 ([1]; wild goldfish sample 03, 2012, wet weight): 1.565 ng/g
plasma concentration, JH-BB [2, 12]: < 5.7 ng/g
Sculpin (whole body) concentration [3]: 13 ng/g
concentration at 21 days (in vivo; plasma concentration, CPM1 caged, CPM1, 07-2014, pooled plasma, wet weight): 3.38 ng/g
concentration at 21 days (in vivo; plasma concentration, CPM2 caged, CPM2, 07-2014, pooled plasma, wet weight): 1.46 ng/g
concentration at 21 days (in vivo; plasma concentration, CPM3 caged, CPM3, 07-2014, pooled plasma, wet weight): 1.53 ng/g
concentration at 21 days (in vivo; plasma concentration, JH caged, Jordan Harbour reference site, 07-2014, pooled plasma, wet weight): < 3 ng/g
Salmon (whole body) concentration [4]: 18 ng/g

Cootes carp plasma, range of concentrations [1, 13]: 0.16 to 1.23 ng/g
plasma concentration, carp, this study (mean) [1, 13]: 0.70 ng/g wet weight or ng/mL for plasma
plasma concentration, CPM-C 10 [1, 14]: 1.23 ng/g
plasma concentration, CPM-C 13 [1, 14]: 1.14 ng/g
plasma concentration, CPM-C 36 [1, 14]: 0.698 ng/g
plasma concentration, JH-C 73 [1, 14]: 0.155 ng/g
plasma concentration, JH-C 75 [1, 14]: 0.474 ng/g
plasma concentration, JH-C 82 [1, 14]: 0.151 ng/g
plasma concentration, CPM-C 01 [1, 15]: 0.158 ng/g
plasma concentration, CPM-C 2 [1, 15]: 0.799 ng/g
plasma concentration, CPM-C 20 [1, 15]: 0.162 ng/g
plasma concentration, JH-C 54 [1, 15]: 0.159 ng/g
plasma concentration, JH-C 74 [1, 15]: 0.160 ng/g
plasma concentration, JH-C 78 [1, 15]: 0.252 ng/g
plasma concentration, CPM wild-01 [1, 16]: 1.37 ng/g
plasma concentration, CPM wild-02 [1, 16]: 0.188 ng/g
plasma concentration, CPM wild-03 [1, 16]: 0.157 ng/g
plasma concentration, goldfish, this study (mean) [1, 16]: 0.57 ng/g wet weight or ng/mL for plasma
wild goldfish plasma, range of concentrations [1, 16]: 0.15 to 1.1 ng/g
BAFP, CPM2 goldfish caged [5]: 38 L/kg
plasma concentration, JH-BB ([2]; Brown Bullhead (Ameiurus nebulosus), in vivo): 0.622 ng/g
concentration at 21 days (in vivo; caged goldfish plasma, range of concentrations): 0.16 to 1.37 ng/g
concentration at 21 days (in vivo; plasma concentration, CPM1 caged): 1.1 ng/g
concentration at 21 days (in vivo; plasma concentration, CPM2 caged): 0.146 ng/g
concentration at 21 days (in vivo; plasma concentration, CPM3 caged): 0.344 ng/g
concentration at 21 days (in vivo; plasma concentration, JH caged): < 0.3 ng/g
Structure (SMILES): CC1CCc2cc(F)cc3c(=O)c(C(=O)O)cn1c23 (stereo not drawn) [Flumequine]
